From patent US4221811A, “Antifungal and/or antibacterial organotin compounds, and use” (priority 1977, dated 1980)

Key:
Assay type in all cases: cell-based
fungi = experiment: Antifungal activity
Text: (§1) Antifungal activity of organotin compounds. Minimal concentra-
(§2) tion (mg/l) causing complete inhibition of visible growth (MIC;
(§3) after three days). -Test medium: glucose-agar; pH~6.9-7.0.

Aspergillus niger = details: after three days, glucose-agar, pH~6.9-7.0
Text: as §1, §2, §3

Botrytis allii = details: after three days, glucose-agar, pH~6.9-7.0
Text: as §1, §2, §3

Penicillium italicum = details: after three days, glucose-agar, pH~6.9-7.0
Text: as §1, §2, §3

Cladosporium cucumerinum = details: after three days, glucose-agar, pH~6.9-7.0
Text: as §1, §2, §3

B. subtilis = B. subtilis (Gram-pos.); after three days; peptone-glucose agar; pH ~ 6.9-7.0
Text: (§4) Antibacterial activity of organotin compounds. Minimal concentration
(§5) causing complete inhibition of visible growth (MIC; after three days).
(§6) Test medium: peptone-glucose agar; pH ~ 6.9-7.0.

E. coli = E. coli (Gram-neg.); after three days; peptone-glucose agar; pH ~ 6.9-7.0
Text: as §4, §5, §6

P. fluorescens = P. fluorescens (Gram-neg.); after three days; peptone-glucose agar; pH ~ 6.9-7.0
Text: as §4, §5, §6

S. lactis = S. lactis (Gram-pos.); after three days; peptone-glucose agar; pH ~ 6.9-7.0
Text: as §4, §5, §6

SMILES	antifungal activity (in words) (fungi)	Minimal concentration causing complete inhibition of visible growth (MIC) (Aspergillus niger) [µg/mL]	Minimal concentration causing complete inhibition of visible growth (MIC) (Botrytis allii) [µg/mL]	Minimal concentration causing complete inhibition of visible growth (MIC) (Penicillium italicum) [µg/mL]	Minimal concentration causing complete inhibition of visible growth (MIC) (Cladosporium cucumerinum) [µg/mL]	Minimal concentration causing complete inhibition of visible growth (MIC) (B. subtilis) [µg/mL]	Minimal concentration causing complete inhibition of visible growth (MIC) (E. coli) [µg/mL]	Minimal concentration causing complete inhibition of visible growth (MIC) (P. fluorescens) [µg/mL]	Minimal concentration causing complete inhibition of visible growth (MIC) (S. lactis) [µg/mL]
CCC[CH2][Sn]([CH2]CCC)([CH2]CCC)[CH2]Cc1ccncc1 [tributyl-[3-(4-pyridyl)ethyl]tin]	high antifungal activity								
O=C([CH2][Sn]([c]1ccccc1)([c]1ccccc1)[c]1ccccc1)[O][Sn]([c]1ccccc1)([c]1ccccc1)[c]1ccccc1 [Ph3 SnCH2 COOSnPh3]		≤ 10	≤ 10	≤ 10					
CCC[CH2][Sn]([CH3])([CH2]CCC)[CH2]CCNCCCN(C)C [MeBu2 Sn(CH2)3 NH(CH2)3 NMe2, N-[3-(methyldibutylstannyl)propyl-N', N'-dimethyltrimethylene]diamine]		50	≤ 10	≤ 10	50	10	10	10	10
CCC[CH2][Sn]([CH2]C#N)([CH2]CCC)[CH2]CCC [Bu3 SnCH2 CN]		1	20	5					
C[N+](C)(C)CC[CH2][Sn]([c]1ccccc1)([c]1ccccc1)[c]1ccccc1.[I-] [Ph3 Sn(CH2)3 NMe3 I]		> 500	20	200	500	10	1000	1000	10
CCC[CH2][Sn]([CH2]CCC)([CH2]CC[N+](C)(C)C)[CH2]CC[N+](C)(C)C.[I-].[I-] [Bu2 Sn[(CH2)3 NMe3 I]2, Bis(trimethylammoniopropyl)dibutyltin diiodide]		> 500	200	200	> 500	300	> 1000	> 1000	300
CCCC[CH2][Sn]([CH2]CCCC)([CH2]CCCC)[CH2]CC[N+](C)(C)C.[I-] [Pent3 Sn(CH2)3 NMe3 I]		20	≤ 10	20	20				
CCC[CH2][Sn]([CH2]CCC)([CH2]CCC)[CH2]CCOC(C)=O [Bu3 Sn(CH2)3 OCOCH3]		50	50	20	20	100	> 1000	300	100
CCC[CH2][Sn]([CH2]CCC)([CH2]CCC)[CH2]CC[N+](C)(C)C.[I-] [Bu3 Sn(CH2)3 NMe3 I]		50	≤ 10	50	20	≤ 1	30	300	≤ 1
CCC[CH2][Sn]([CH2]CCC)([CH2]CCC)[O]C(C)=O [Bu3 SnOAc, reference compound]		1	0.5	0.5	1	2	> 500	100	5
CCC[CH2][Sn]([CH2]CCC)([CH2]CCC)[CH2]CC(N)=O [Bu3 Sn(CH2)2 CONH2]		≤ 20	≤ 10	≤ 10	≤ 10	3	> 1000	300	10
CCC[CH2][Sn]([CH2]CCC)([CH2]CCC)[CH2]CCO [Bu3 Sn(CH2)3 OH]		100	50	100	100	1000	> 1000	> 1000	300
CCC[CH2][Sn]([CH2]CCC)([CH2]CCC)[CH2]CCC [Bu4 Sn, reference compound]		> 500	> 500	> 500	> 500	> 500	> 500	> 500	> 500
CCC[CH2][Sn]([CH2]CCC)([CH2]CCC)[CH2]CCN(C)C.Cl [Bu3 Sn(CH2)3 NMe2 . HCl]		5	5	5	5	10	300	300	10
CCC[CH2][Sn]([CH2]CCC)([CH2]CCN(C)C)[CH2]CCN(C)C [Bu2 Sn[(CH2)3 NMe2]2]		> 500	50	100	500	100	100	300	100
CCC[CH2][Sn]([CH2]CCC)([CH2]CCC)[CH2]CCCN [Bu3 Sn(CH2)4 NH2]						3	300	300	3
CCC[CH2][Sn]([CH2]CCC)([CH2]CCC)[CH2]CCN [Bu3 Sn(CH2)3 NH2]		20		2	5				
CC[CH2][Sn]([CH2]CC)([CH2]CC)[CH2]CCNCCCN(C)C [Pr3 Sn(CH2)3 NH(CH2)3 NMe2, N-[3-(tripropylstannyl)propyl-N', N'-dimethyltrimethylene]diamine]		10	≤ 10	≤ 10	≤ 10	10	10	10	10
CC[N+](C)(CC)CC[CH2][Sn]([c]1ccccc1)([c]1ccccc1)[c]1ccccc1.[I-] [Ph3 Sn(CH2)3 NEt2 MeI]		> 1000	50	500					
